{"source": "patent EP3431088A1", "about": "“MNTBAP FOR USE IN INDUCING A TRANSIENT IMMUNE TOLERANCE” (priority 2017, dated 2019)", "key": {"[1]": {"test_system": "specific T-cell immune responses against OVA peptides", "assay": "OVA peptides subcutaneous immunization, IFN-γ ELISPOT on spleen cells", "assay_type": "in vivo, C57BL/6 mice", "details": "80 mg/kg IP daily 5 days, vs PBS + OVA / IFA", "method": "(§1) MnTBAP (Calbiochem, San Diego, USA or Enzo Life Sciences, Farmingdale, USA) is dissolved in 75 mM NaOH to constitute a 20 mM stock solution. MnTBAP is dissolved in the complete medium, used for in vitro treatment, containing RPMI-1640 supplemented with 10% heat-inactivated fetal calf serum, 100 U/ml penicillin/streptomycin, 2 mM glutamax and 50 µM β-mercaptoethanol β-ME). Hypertonic medium, used to block clathrin dependent endocytosis, is complete medium supplemented with 0.45 M sucrose. For in vivo treatment, the stock solution is diluted with PBS and administered at 80 mg/kg intraperitoneally daily during five days. Control animals are injected with equivalent volume of PBS.\nA mixture of chicken egg albumin (OVA) peptides is administrated subcutaneously in mice anesthetized by intraperitoneal injection of xylazine (10 mg/kg) and ketamine (100 mg/kg). OVA257-264 (SEQ ID NO: 3; SIINFEKL) (InvivoGen, San Diego, USA) is a class I (Kb)-restricted peptide epitope of OVA presented by the class I major histocompatibility complex molecule (CMH) H-2Kb. OVA323-339 (SEQ ID NO: 4; ISQAVHAAHAEINEAGR) (AnaSpec, San Jose, USA) is an H-2b-restricted OVA class II epitope. 100 µg of each peptide complexed with the same volume of incomplete Freund's adjuvant (IFA) (Sigma-Aldrich) are administrated. Controls are injected with PBS-IFA complexes. OVA peptides- and PBS-IFA complexes are injected two hours or 21 days post first intraperitoneal injection of MnTBAP (or PBS). Eight days post OVA peptides injection, mice are sacrificed and spleens harvested to analyze OVA-specific T cell response.\nSpleens are harvested to analyze the cellular immune anti-transgene response by T-cell cytokine response assay. Multiscreen-HA Assay System 96-well Filtration plates (Merck) are coated overnight with 2.5 µg/ml of anti-mouse IFN-γ purified mAb (eBiosciences) at 4°C, washed, and then blocked with RPMI 1640 medium (Life Technologies, Saint-Aubin, France) supplemented with 10% heat inactivated fetal bovine serum (FCS), 100U/ml penicillin/streptomycin (Thermo Fisher Scientific) and 2mM GlutaMAXTM-I (Life technologies) for 2 hours at 37°C. Plates are washed three times with RPMI 1640 medium without FCS. Splenocytes are added in duplicate to the IFN-γ-coated well (1 or 0.5 x 10^6 cells/well) and cultured in presence of Dby or Uty peptide (Genepep, Montpellier, France) at 2 µM or in presence of OVA peptides at 10 µg/ml. As a positive control, cells are stimulated with Concanavalin A (Sigma-Aldrich) at 1 µg/ml in each test. […] Spots are counted using an AID reader (Ceipheid Benelux, Louven, Belgium). Spot forming units (SFU) per million cells for each mouse are calculated as the average value of duplicate measures after subtraction of background values obtained with in vitro unstimulated splenocytes."}, "[2]": {"test_system": "humoral response against capsid", "assay": "Anti-rAAV1 IgG titers by ELISA after IV rAAV and readministration", "assay_type": "in vivo, C57BL/6 mice", "details": "for specific anti-rAAV IgG: 80 mg/kg IP daily 5 days, vs control group", "method": "as §1\nIntravenous (IV) injection: Two hours post first IP injection of MnTBAP, mice are anesthetized by IP injection of xylazine (10 mg/kg) and ketamine (100 mg/kg) and 200 µl of a rAAV2/1 CMV SGCA HY viral preparation containing 2.5.10^9 vg is injected into retro orbital sinus or into tail vein. Controls are injected with PBS. Serum samples are harvested at D21 and D28 post vector injection to analyze capsid-specific humoral response.\nReadministration protocol: After the initial IV injection of rAAV2/1 CMV SGCA HY vector at D0 (two hours post first IP injection of MnTBAP) the second rAAV1 injection (2.10^9 vg of rAAV2/1 CMV mSeAP) is performed 28 days later in the left TA muscle. Mice are followed up to 93 days after readministration to analyze capsid-specific humoral response and to measure circulating mSeAP from serum samples. Mice are killed 93 days after second injection of vector. Left and right TA muscles are harvested for histological and enzymatic assay.\nrAAVl-specific serum antibody titers are evaluated by ELISA. […] Reaction is stopped with an H2SO4 solution and the optical density at 450 nm is determined using a […] (Discovery HT-R, BioServ, Thiais, France) with KC4 software. The area under the curve (AUC) values obtained from the optical densities at four dilution points are calculated for statistical analysis using GraphPad Prism software (Logi Labo, Paris, France)."}, "[3]": {"details": "OVA/IFA immunization 21 days after first injection"}, "[4]": {"details": "OVA/IFA immunization two hours after first injection"}}, "data": [{"smiles": "O=C(O)c1ccc(-c2c3nc(c(-c4ccc(C(=O)O)cc4)c4ccc([n-]4)c(-c4ccc(C(=O)O)cc4)c4nc(c(-c5ccc(C(=O)O)cc5)c5ccc2[n-]5)C=C4)C=C3)cc1.[Mn+3]", "note": "[MnTBAP, manganese [III] tetrakis (4-benzoic acid) porphyrin]", "values": [{"measurement": "IFN-γ production by OVA-specific CD4^+ T cells", "setting": "[1]; [3]", "value": "produce low levels of IFN-γ with no significant differences"}, {"measurement": "IFN-γ production by OVA-specific CD8^+ T cells", "setting": "[1]; [3]", "value": "produce IFN-γ with no significant differences"}, {"measurement": "IFN-γ production by OVA-specific CD4^+ T cells", "setting": "[1]; [4]", "value": "not able to produce IFN-γ"}, {"measurement": "IFN-γ production by OVA-specific CD8^+ T cells", "setting": "[1]; [4]", "value": "not able to produce IFN-γ"}, {"measurement": "specific anti-rAAV IgG", "setting": "[2]; Day 21 post IV vector injection", "value": "no or significantly less specific anti-rAAV IgG"}, {"measurement": "specific anti-rAAV IgG", "setting": "[2]; Day 28 post IV vector injection", "value": "no or significantly less specific anti-rAAV IgG"}, {"measurement": "specific anti-rAAV IgG titer", "setting": "[2]; serum 10 days after vector readministration in TA (28 days post first injection), vs PBS", "value": "decrease of specific anti-rAAV IgG titer"}]}]}
